Laboratory results published in US20170152241A9, “BICYCLIC DERIVATIVE CONTAINING PYRIMIDINE RING, AND PREPARATION METHOD THEREFOR” (YUHAN CORPORATION, priority 2013, published 2017).
Counter-ions that a name gives are not always drawn.

Target: T1, human 5-HT4(a) (Homo sapiens, UniProt Q13639)
T1 construct: host or cells: GeneBlAzer HTR4-CRE-bla CHO-K1 cells
Assay: Evaluation of agonistic activity in CHO-K1 cells expressing human 5-HT4(a) (GeneBlAzer HTR4-CRE-bla, beta-lactamase reporter)
Type: cell-based
Conditions: 5 hours incubation, 8 concentrations
Experimental: Evaluation of Agonistic Activity in CHO-K1 Cells Expressing Human 5-HT4(a)
As CHO-K1 cells stably expressing human 5-HT4(a), we used the GeneBlAzer HTR4-CRE-bla CHO-K1 cells (Invitrogen corp.). The cells were cultured in DMEM medium supplemented with 10% bovine fetal serum (FBS), 25 mM HEPES (pH 7.4), 600 μg/ml Hygromycin B, 0.1 mM non-essential amino acids, 100 unit/ml penicillin and 100 μg/ml streptomycin under the condition of 37° C. and 5% CO2. Subcultures were performed three times per a week, each being at less than 80% confluence. At the previous day before treating test compounds, the cells were collected by using 0.5% trypsin/EDTA, and then diluted with a DMEM supplemented with 1% FBS, 25 mM HEPES and 0.1 mM non-essential amino acids into 3.125×10^5 cells/ml. 32 μl of the diluted cells were added into 384-well plate (10,000 cells/well) and then incubated overnight. The compounds to be used as a test material and a control drug were prepared as 500× of the various final treating concentrations of the drug with 100% DMSO, and then treated to the medium after diluting them to 100-folds to be 1% of the final DMSO concentration equally. After culturing overnight, 8 μl of the medium having 1% of DMSO was added into the cell-free control well and the non-stimulating control well, respectively. 8 μl of the control drug or the test material (which had been prepared by diluting 100-folds with the medium as mentioned in the above) having 1% of DMSO, were added to the respective remaining wells. After culturing in an incubator for 5 hours, the wells of the 384-plate were treated with the substrate solution (8 μl/well) prepared according to the vendor's instruction (i.e. Invitrogen's instruction), and then incubated in the dark room for additional 2 hours. Agonistic activities on 5-HT4 receptor were evaluated, on the basis of fluorescent values of the cleavage-products, which is generated cAMP-concentration dependently per equal time by beta-lactamase. After exciting to 410 nm of wavelength by using Genios Pro Fluorescence Detector, we measured the fluorescence values at two emission wavelengths (first wavelength: 465 nm, second wavelength: 535 nm). Data were analyzed on the basis of the ratio of fluorescence intensities of each well at the respective wavelengths. For all plates, the concentrations-response curve (1 pM-100 nM) of the control drug (Tegaserod) was included. Each EC50 values of the test compounds were calculated by non-linear regression analysis using GraphPad Prism program, based on the concentration-reactivity values according to 8-different concentrations of the test compounds.

T1 sequence (Q13639 1-387 isoform Q13639-2): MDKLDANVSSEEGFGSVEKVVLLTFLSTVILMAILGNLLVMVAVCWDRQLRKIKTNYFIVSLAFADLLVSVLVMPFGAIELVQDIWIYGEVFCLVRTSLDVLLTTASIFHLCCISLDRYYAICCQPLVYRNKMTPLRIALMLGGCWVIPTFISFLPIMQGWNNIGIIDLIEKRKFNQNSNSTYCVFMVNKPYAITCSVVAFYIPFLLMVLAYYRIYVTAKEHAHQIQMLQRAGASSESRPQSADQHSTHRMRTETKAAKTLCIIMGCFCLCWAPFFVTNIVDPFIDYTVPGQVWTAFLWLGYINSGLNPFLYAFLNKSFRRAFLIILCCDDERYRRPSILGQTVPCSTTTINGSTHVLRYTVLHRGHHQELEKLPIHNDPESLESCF

Q: `CC(=O)N[C@H]1CCN(c2nc(Nc3cc(N)cc(C#N)c3)nc3cc(C(F)(F)F)ccc23)C1` [Example 28, (S)—N-(1-[2-{(3-amino-5-cyanophenyl)amino}-7-(trifluoromethyl)quinazolin-4-yl]pyrrolidin-3-yl)-acetamide] was tested. Which EC50 did it give?
A: 0.39 nM

Q: How did the EC50 turn out when `CCN[C@H]1CCN(c2nc(Nc3cc(N)cc(C#N)c3)nc3ccccc23)C1` [Example 141, (S)-3-amino-5-([4-{3-(ethylamino)pyrrolidin-1-yl}quinazolin-2-yl]amino)benzonitrile] was run?
A: 0.01 nM

Q: With `COc1cc2nc(Nc3cc(N)cc(C(F)(F)F)c3)nc(N3CC[C@H](NC(C)=O)C3)c2cc1OC` [Example 7, (S)—N-{1-(2-[{3-amino-5-(trifluoromethyl)-phenyl}amino]-6,7-dimethoxyquinazolin-4-yl)pyrrolidin-3-yl}acetamide] as the compound, how does the EC50 read?
A: 0.03 nM

Q: How did the EC50 turn out when `CC(=O)N[C@H]1CCN(c2nc(Nc3cc(N)cc(C#N)c3)nc3c2CCC3)C1` [Example 168, (S)—N-(1-[2-{(3-amino-5-cyanophenyl)amino}-6,7-dihydro-5H-cyclopenta[d]pyrimidin-4-yl]pyrrolidin-3-yl)acetamide hydrochloride] was run?
A: 0.01 nM

Q: How did the EC50 turn out when `COc1ccc2nc(Nc3cc(N)cc(C(F)(F)F)c3)nc(N3CC[C@H](NC(C)=O)C3)c2c1` [Example 14, (S)—N-{1-(2-[{3-amino-5-(trifluoromethyl)-phenyl}amino]-6-methoxyquinazolin-4-yl)pyrrolidin-3-yl}-acetamide] was run?
A: 0.02 nM

Q: Which EC50 does the source give for `CN[C@H]1CCN(c2nc(Nc3cc(N)cc(C#N)c3)nc3cccc(C)c23)C1` [Example 68, (S)-3-amino-5-[5-methyl-4-{3-(methylamino)pyrrolidin-1-yl}quinazolin-2-ylamino]benzonitrile] here?
A: 0.08 nM

Q: For `CC(=O)N[C@H]1CCN(c2nc(Nc3cc(N)cc(C#N)c3)nc3cc(F)ccc23)C1` [Example 85, (S)—N-[1-{2-(3-amino-5-cyanophenylamino)-7-fluoroquinazolin-4-yl}pyrrolidin-3-yl]acetamide hydrochloride], which EC50 is on record?
A: 0.04 nM

Q: Which EC50 does the source give for `CC(=O)N[C@@H]1CCCN(c2nc(Nc3ccc(N)c([N+](=O)[O-])c3)nc3c2CCC3)C1` [Example 198, (R)—N-(1-[2-{(4-amino-3-nitrophenyl)amino}-6,7-dihydro-5H-cyclopenta[d]pyrimidin-4-yl]piperidin-3-yl}acetamide hydrochloride] here?
A: 0.01 nM

Q: `N#Cc1cc(N)cc(Nc2nc(N3CC[C@H](NC(=O)Cc4cccs4)C3)c3ccccc3n2)c1` [Example 37, (S)—N-[1-{2-(3-amino-5-cyanophenylamino)quinazolin-4-yl}pyrrolidin-3-yl]-2-(thiophen-2-yl)acetamide] was tested. Which EC50 did it give?
A: 0.03 nM

Q: With `COc1cccc2c(N3CCC[C@@H](NC(C)=O)C3)nc(Nc3cc(N)cc(C(F)(F)F)c3)nc12` [Example 64, (R)—N-[1-{2-(3-amino-5-trifluoromethylphenylamino)-8-methoxyquinazolin-4-yl}piperidin-3-yl]acetamide] as the compound, how does the EC50 read?
A: 0.03 nM

Q: How did the EC50 turn out when `CN[C@@H]1CCCN(c2nc(Nc3cc(N)cc(C(F)(F)F)c3)nc3c2CCCC3)C1` [Example 213, (R)—N^1-[4-{3-(methylamino)piperidin-1-yl}-5,6,7,8-tetrahydroquinazolin-2-yl]-5-(trifluoromethyl)benzene-1,3-diamine dihydrochloride] was run?
A: 0.016 nM

Q: With `CCCCCN[C@H]1CCN(c2nc(Nc3cc(N)cc(C#N)c3)nc3ccccc23)C1` [Example 41, (S)-3-amino-5-[4-{3-(pentylamino)-pyrrolidin-1-yl}quinazolin-2-ylamino]benzonitrile] as the compound, how does the EC50 read?
A: 0.0024 nM

Q: `CNC(=O)[C@@H]1CCCN(c2nc(Nc3cc(N)cc(C(F)(F)F)c3)nc3c2CCCC3)C1` [Example 123, (R)-1-[2-{3-amino-5-(trifluoromethyl)phenylamino}-5,6,7,8-tetrahydroquinazolin-4-yl]-N-methylpiperidine-3-carboxamide] was tested. Which EC50 did it give?
A: 0.01 nM

Q: `CN[C@@H]1CCCN(c2nc(Nc3cc(N)cc(C#N)c3)nc3c2CCC3)C1` [Example 204, (R)-3-amino-5-([4-{3-(methylamino)piperidin-1-yl}-6,7-dihydro-5H-cyclopenta[d]pyrimidin-2-yl]amino)benzonitrile dihydrochloride] was tested. Which EC50 did it give?
A: 0.01 nM

Q: Which EC50 does the source give for `CNC(=O)[C@@H]1CCCN(c2nc(Nc3ccc(N)c([N+](=O)[O-])c3)nc3c2CCC3)C1` [Example 224, (R)-1-[2-{(4-amino-3-nitrophenyl)amino}-6,7-dihydro-5H-cyclopenta[d]pyrimidin-4-yl]-N-methylpiperidine-3-carboxamide hydrochloride] here?
A: 0.0087 nM

Q: For `COc1ccc2c(N3CC[C@H](NC(C)=O)C3)nc(Nc3cc(N)cc(C#N)c3)nc2c1` [Example 147, (S)—N-(1-[2-{(3-amino-5-cyanophenyl)amino}-7-methoxyquinazolin-4-yl]pyrrolidin-3-yl)acetamide], which EC50 is on record?
A: 0.01 nM

Q: With `CCN[C@H]1CCN(c2nc(Nc3cc(N)cc(C#N)c3)nc3c2CCCC3)C1` [Example 105, (S)-3-amino-5-[4-{3-(ethylamino)pyrrolidin-1-yl}-5,6,7,8-tetrahydroquinazolin-2-ylamino]benzonitrile dihydrochloride] as the compound, how does the EC50 read?
A: 0.01 nM

Q: For `N#Cc1cc(N)cc(Nc2nc(N3CC[C@H](N)C3)c3ccccc3n2)c1` [Example 31, (S)-3-amino-5-{4-(3-aminopyrrolidin-1-yl)-quinazolin-2-ylamino}benzonitrile dihydrochloride], which EC50 is on record?
A: 0.03 nM

Q: With `CC(C)N[C@H]1CCN(c2nc(Nc3cc(N)cc(C#N)c3)nc3ccccc23)C1` [Example 46, (S)-3-amino-5-[4-{3-(isopropylamino)pyrrolidin-1-yl}quinazolin-2-ylamino]benzonitrile] as the compound, how does the EC50 read?
A: 0.05 nM

Q: Which EC50 does the source give for `CC(=O)N[C@H]1CCN(c2nc(Nc3cc(N)cc(C#N)c3)nc3cc(Cl)ccc23)C1` [Example 81, (S)—N-[1-{2-(3-amino-5-cyanophenylamino)-7-chloroquinazolin-4-yl}pyrrolidin-3-yl]acetamide hydrochloride] here?
A: 0.06 nM

Q: For `N#Cc1cc(N)cc(Nc2nc3c(c(N4CC[C@H](N)C4)n2)CCC3)c1` [Example 174, (S)-3-amino-5-[{4-(3-aminopyrrolidin-1-yl)-6,7-dihydro-5H-cyclopenta[d]pyrimidin-2-yl}amino]benzonitrile dihydrochloride], which EC50 is on record?
A: 0.02 nM

Q: Which EC50 does the source give for `N#Cc1cc(N)cc(Nc2nc3c(c(N4CCC[C@@H](N)C4)n2)CCC3)c1` [Example 199, (R)-3-amino-5-[{4-(3-aminopiperidin-1-yl)-6,7-dihydro-5H-cyclopenta[d]pyrimidin-2-yl}amino]benzonitrile dihydrochloride] here?
A: 0.02 nM

Q: For `CC(=O)N[C@@H]1CCCN(c2nc(Nc3ccc(N)c(C(F)(F)F)c3)nc3c(C)cccc23)C1` [Example 80, (R)—N-(1-[2-{4-amino-3-(trifluoromethyl)phenylamino}-8-methylquinazolin-4-yl]piperidin-3-yl)acetamide hydrochloride], which EC50 is on record?
A: 0.04 nM

Q: For `CCCN[C@H]1CCN(c2nc(Nc3cc(N)cc(C#N)c3)nc3c2CCC3)C1` [Example 184, (S)-3-amino-5-([4-{3-(propylamino)pyrrolidin-1-yl}-6,7-dihydro-5H-cyclopenta[d]pyrimidin-2-yl]amino)benzonitrile dihydrochloride], which EC50 is on record?
A: 0.01 nM

Q: Which EC50 does the source give for `CCCN[C@H]1CCN(c2nc(Nc3cc(N)cc(C#N)c3)nc3cccnc23)C1` [Example 159, (S)-3-amino-5-([4-{3-(propylamino)pyrrolidin-1-yl}pyrido[3,2-d]pyrimidin-2-yl]amino)benzonitrile dihydrochloride] here?
A: 0.01 nM

Q: `CC(=O)N[C@H]1CCN(c2nc(Nc3ccc(Cl)c(N)c3)nc3ccccc23)C1` [Example 133, (S)—N-(1-[2-{(3-amino-4-chlorophenyl)amino}quinazolin-4-yl]pyrrolidin-3-yl)acetamide] was tested. Which EC50 did it give?
A: 0.03 nM

Q: For `Nc1cc(Nc2nc(N3CCC[C@@H](N)C3)c3ncccc3n2)cc(C(F)(F)F)c1` [Example 167, (R)—N^1-{4-(3-aminopiperidin-1-yl)pyrido[3,2-d]pyrimidin-2-yl}-5-trifluoromethyl)benzene-1,3-diamine dihydrochloride], which EC50 is on record?
A: 0.09 nM

Q: For `CC(=O)N[C@H]1CCN(c2nc(Nc3cc(N)cc(C#N)c3)nc3c2CCCC3)C1` [Example 88, (S)—N-[1-{2-(3-amino-5-cyanophenylamino)-5,6,7,8-tetrahydroquinazolin-4-yl}pyrrolidin-3-yl]acetamide], which EC50 is on record?
A: 0.01 nM

Q: `COc1ccc2nc(Nc3cc(N)cc(C#N)c3)nc(N3CCC[C@@H](NC(C)=O)C3)c2c1` [Example 21, (R)—N-(1-[2-{(3-amino-5-cyanophenyl)-amino}-6-methoxyquinazolin-4-yl]piperidin-3-yl)acetamide] was tested. Which EC50 did it give?
A: 0.01 nM
